Source: US20240189285A1, “COMPOSITION AND METHOD FOR ENHANCING MITOCHONDRIAL BIOGENESIS AND ACTIVATING PGC-1A” (NANJING NUTRABUILDING BIO-TECH CO., LTD., priority 2021, published 2024)

Columns and labels:
Assay type in all cases: cell-based
[1] = test system: target cells (endothelial cells, C2C12 skeletal muscle cells, etc.); assay: Mitochondrial biogenesis in vitro: mitochondrial mass (flow cytometry, fluorescent microscopy) and mtDNA copy number (quantitative PCR)
Procedure: (§1) Target cells (endothelial cells, C2C12 skeletal muscle cells, etc.) are obtained according to conventional methods in the art.
The target cells (endothelial cells, C2C12 skeletal muscle cells, etc.) were divided into groups A, B, C and D. B and D group cells were cultured with 50 μM L-Ergothioneine for 12 hours. A and C groups were not cultured with Ergothioneine but only with the usual nutrient solution for 12 hours. Then a certain concentration of H2O2 was used to cause C and D group cells damage, no H2O2 was used on A and B groups. Mitochondrial biogenesis was measured by quantifying both mitochondrial mass and mitochondrial DNA (mtDNA) contents. Mitochondrial mass was measured by flow cytometry and fluorescent microscopy, mtDNA copy number was analyzed by quantitative PCR.

PGC-1α = PGC-1α protein expression by Western blot in target cells
Procedure: as §1
(§2) The target cells (endothelial cells, C2C12 skeletal muscle cells, etc.) are divided into groups A, B, C and D. B and D group cells were cultured with 50 μM L-Ergothioneine for 12 hours, and A and C groups were not cultured with Ergothioneine but only with the usual nutrient solution for 12 hours. Then a certain concentration of H2O2 was used to cause C and D group cells damage, no H2O2 was used on A and B groups. Then PGC-1α protein expression and Sirt1 protein level were analyzed by Western blot.

Sirt1 = Sirt1 protein level by Western blot in target cells
Procedure: as §1, §2

[2] = group B: 50 μM L-Ergothioneine for 12 hours, no H2O2, untreated group A = 100

Q: What does the source list for `C[N+](C)(C)[C@@H](Cc1c[nH]c(=S)[nH]1)C(=O)[O-]` [L-Ergothioneine]?
A: Relative mitochondrial mass [1, 2]: 112%; Relative mtDNA content [1, 2]: 118%; Relative mitochondrial mass ([1]; group D: 50 μM L-Ergothioneine for 12 hours, then H2O2 damage, H2O2-only group C = 78): 90%; Relative mtDNA content ([1]; group D: 50 μM L-Ergothioneine for 12 hours, then H2O2 damage, H2O2-only group C = 89): 93%; PGC-1α level (Western blot) (PGC-1α; group B: 50 μM L-Ergothioneine for 12 hours, no H2O2, untreated group A about 0.0046): ~0.005; PGC-1α level (Western blot) (PGC-1α; group D: 50 μM L-Ergothioneine for 12 hours, then H2O2 damage, H2O2-only group C about 0.0036): ~0.0043; Sirt1 level (Western blot) (Sirt1; group B: 50 μM L-Ergothioneine for 12 hours, no H2O2, untreated group A about 0.79): ~0.85; Sirt1 level (Western blot) (Sirt1; group D: 50 μM L-Ergothioneine for 12 hours, then H2O2 damage, H2O2-only group C about 0.65): ~0.75
